# Measurements: patent EP0933027A1, “Methods and compositions for protecting animals and humans against attack and infestation by arthropod and helminth parasites” (American Cyanamid Company, priority 1998, dated 1999)
# Read-outs that look alike come from different tables or passages of the source.
# Test system: Bovicola spp.
# Experiment: Coated vial test against adult biting louse
# Conditions: for mortality at 2 µg/cm2: dose 2.0 µg/cm^2; for mortality at 6.1 µg/cm2: dose 6.1 µg/cm^2
# Description: This test is designed to evaluate the activity of test compounds against the biting louse. Test compounds are dissolved in 100% acetone to 300, 100 and 10 ppm. 100 µL of each of these dilutions is added to the bottom of a 20 mL glass scintillation vial with a pipettor. The vial is allowed to dry under a fume hood for 15 minutes. The bottom of the vial measures 4.909 cm^2. The amount of test compound applied by each dilution equals 6.1, 2.0 and 0.2 µg/cm^2, respectively. Included in all tests are two to three replications of untreated vials. Lice are collected from the host animal and are used within 4 hours. The lice are counted into the scintillation vials with a slightly damp paintbrush. Five adult lice are placed in each vial. These tests are done in replicates of two or three so that there are 10 to 15 lice per rate/compound. Mortality readings are taken at 2 and 4 hours after placing the lice in the vials. To read the test, the vial is placed under a magnifying glass. […] Percent mortality is then calculated for each treatment.
# [1] = 2 hours, read-out: 2 Hour % Mortality
# [2] = 4 hours, read-out: 4 Hour % Mortality
smiles,measurement,setting,value
"F/C(=C\Cc1ccc(F)c(Oc2ccccc2)c1)C(c1ccc(Cl)cc1)C1CC1 (stereo not shown) [Compound 5, 1-[1-(p-Chlorophenyl)-2-fluoro-4-(4-fluoro-3-phenoxyphenyl)-2-butenyl]cyclopropane, (Z)-]",mortality at 2 µg/cm2,[1],92%
same,mortality at 2 µg/cm2,[2],100%
same,mortality at 6.1 µg/cm2,[1],100%
same,mortality at 6.1 µg/cm2,[2],100%
